Test [1] relates to Female medflies. The experiment in a line: Delta trap catches in temperature controlled room, released female medflies. Particulars: for effect on medfly attraction when added to NATC 1%: Experiment 22.
The test system of test [2] is Female medflies. The experiment in a line: Delta trap catches in orchards, released female medflies. It is filed as in vivo, Ceratitis capitata.

Take `COc1cccc(C(N)=O)c1` [3-Methoxy benzamide]: the “effect on medfly attraction when added to NATC 1%” value (shortened to “effect … to NATC 1%”) in the test on Female medflies [1] is listed as “suppressed medfly attraction”. As to `CC(=O)O.N` [Ammonium acetate], in the test with Female medflies [1] (in vivo), the “attracting partner for the NATC-0.5%+TEA-0.5% combination compared with Maltol 0.5%” value is listed as “stronger attracting partner” and the “increase of trap catches by addition to the NATC-1%+TEA-1% mixture” value was 272.5%. With `Cc1cnc(C)c(C)n1` [2,3,5-Trimethyl pyrazine], the “effect … to NATC 1%” value in the test with Female medflies [1] is “suppressed medfly attraction”. On to `CC(=O)OCC[N+](C)(C)C.[Cl-]` [Acetyl choline chloride], for which the “times more attractive than the tri-ethanolamine mixtures” value in the test on Female medflies [1] (as amine in the NATC/amine/NH4Ac/Molasses mixture) is given as “about 3 times”. In the test on Female medflies [1] (in vivo), the “more medflies attracted than Choline chloride (number)” value worked out at 284.2 and the “more medflies attracted than Choline chloride (percent)” value came to 93%. Consider `CN(C)Cc1c[nH]c2ccccc12` [Gramine], for which, in the test with Female medflies [1], the “effect … to NATC 1%” value was “suppressed medfly attraction”. In the case of `CCOC(=O)CC(SP(=S)(OC)OC)C(=O)OCC` (centres unmarked) [Malathion], the “times more female medflies caught with poison than without it” value in the test with Female medflies [2] (in vivo) is listed as around 1.5 times.

Turning to `CC(=O)O` [acetic acid], the “effect of addition on medfly trap catches with TEA” value in the test on Female medflies [1] (Experiment 14, added to NATC + TEA) is given as “seems to decrease”. On to `C=C(C)[C@H]1Cc2c(ccc3c2O[C@@H]2COc4cc(OC)c(OC)cc4[C@@H]2C3=O)O1` [Rotenone], for which the “effect of the bait poison combined with NATC in YP on female medfly trap catches” value in the test with Female medflies [2] (Experiment 7, 0.5% poison added to NATC 1% in YP vs NATC 1% in YP alone) is recorded as “small differences”.

The values are drawn from patent publication US8282952B2, “Insect attractant” (Activetrad (Proprietary) Limited, priority 2007, dated 2012).
